± gives the expanded uncertainty stated by the source.
Columns and labels:
[1] = refractive index (Na D-line) (dimensionless); wn = mass fraction of the nth substance listed; settings: 303 K, 100 kPa, Liquid, Standard Abbe refractometry
[2] = refractive index (Na D-line) (dimensionless); settings: 303 K; 100 kPa; Liquid; Standard Abbe refractometry

Row | refractive index ([1]; w2 = 0.3) | refractive index ([1]; w2 = 0.41) | refractive index ([1]; w2 = 0.5) | refractive index ([1]; w2 = 0.6) | refractive index ([1]; w2 = 0.7) | refractive index ([1]; w2 = 0.8) | SMILES | refractive index ([1]; w1 = 1) | other results
1 | 1.4008 ± 0.00038 | 1.38994 ± 0.00038 | 1.38106 ± 0.00038 | 1.37126 ± 0.00038 | 1.36074 ± 0.00038 | 1.35122 ± 0.00038 | OCCO [1,2-ethanediol] + O |  | refractive index ([1]; w2 = 0.1): 1.4196 ± 0.00038; refractive index ([1]; w2 = 0.2): 1.41005 ± 0.00038; refractive index ([1]; w2 = 0.89): 1.34168 ± 0.00037
2 | 1.41992 ± 0.00042 | 1.40643 ± 0.00043 | 1.39413 ± 0.00042 | 1.38175 ± 0.00042 | 1.36838 ± 0.00041 | 1.35616 ± 0.0004 | OCCOCCOCCO [triethylene glycol] + O |  | refractive index ([1]; w2 = 0.1): 1.44204 ± 0.00042; refractive index ([1]; w2 = 0.21): 1.43047 ± 0.00042; refractive index ([1]; w2 = 0.9): 1.34378 ± 0.0004
3 |  |  |  |  |  |  | O [water] |  | refractive index [2]: 1.33179 ± 0.00032
4 |  |  |  |  |  |  | O [water] + OCCO | 1.33179 ± 0.00032 | 
5 |  |  |  |  |  |  | O [water] + OCCOCCO | 1.33179 ± 0.00032 | 
6 |  |  |  |  |  |  | O [water] + OCCOCCOCCO | 1.33179 ± 0.00032 | 
7 |  |  |  |  |  |  | O [water] + OCCOCCOCCOCCO | 1.33179 ± 0.00032 | 

Row | SMILES | refractive index ([1]; w2 = 0.3) | refractive index ([1]; w2 = 0.41) | refractive index ([1]; w2 = 0.5) | refractive index ([1]; w2 = 0.6) | refractive index ([1]; w2 = 0.7) | refractive index ([1]; w2 = 0.8) | refractive index ([1]; w1 = 1) | other results
8 | OCCOCCO [diethylene glycol] + O | 1.41341 ± 0.00041 | 1.40107 ± 0.00042 | 1.38922 ± 0.00041 | 1.37817 ± 0.0004 | 1.36617 ± 0.0004 | 1.35413 ± 0.0004 |  | refractive index ([1]; w2 = 0.11): 1.43408 ± 0.00043; refractive index ([1]; w2 = 0.2): 1.42406 ± 0.00042; refractive index ([1]; w2 = 0.9): 1.34259 ± 0.00039

— the NIST ThermoML archive (doi:10.1021/acs.jced.7b00945)
